# Measurements from US8088570B2, “Method for screening an agent for preventing or ameliorating wrinkles” (Kao Corporation, priority 2006, dated 2012).
# What was measured:
# [1] = system: chronically ultraviolet-irradiated mice (wrinkle formation model); test: Wrinkle-improving effect of CLP, visual observation score in chronically ultraviolet-irradiated hairless mice (Reference Example 1); format: in vivo, hairless mice (Hr-1-ICR); settings: 5 w/v % CLP, 100 μL on dorsal skin for 6 weeks after 12 weeks of UV irradiation
# Excerpt: An experimental system of the chronic and continuous exposure of hairless mice to ultraviolet rays of minimum erythema dose (hereinafter, referred to as 1 MED) or lower (J. Pharm. Pharmacol. 1992; 44: 379-386; and Photochem. Photobiol., 1991; 53: 109-112) was used as a wrinkle formation model to perform a test of wrinkle improvement of 1-carbamimidoyl-L-proline (CLP) in vivo.
# The mice used were hairless mice (Hr-1-ICR) produced from crossing between Hr-1 (Skh-1) hairless mice and ICR mice. Toshiba SE20 lamps were used as an ultraviolet source, and ultraviolet doses used were measured with UV-RADIOMETER (UVR-305/365D, Eisai). The 6- to 10-week-old hairless mice were exposed once a day and five times a week for 12 consecutive weeks to ultraviolet rays of 1 MED or lower, that is, at a dose of 470 J/m^2 during the 0th (at the start of irradiation) to first week, at a dose of 530 J/m^2 during the first to second week, at a dose of 600 J/m^2 during the second to third week, and at a dose of 670 J/m^2 during the fourth and subsequent weeks, to prepare chronically ultraviolet-irradiated mice. […]
# The degree of wrinkles formed on the dorsal skins of the mice was determined at the start of CLP application and on the 6th week according to a visual observation score with reference to the documents described above. The score was evaluated on a scale of 7 using the scores below and mean values. […]
# K6 protein [2] = test: Epidermal K6 protein level by western blotting in wrinkle model mice (Example 1); format: in vivo, hairless mice; settings: 5 w/v % CLP applied 6 weeks after 9 weeks of UV irradiation; compared with solvent control and unirradiated mice
# Description: (§1) Six-week-old hairless mice of the same species as in Reference Example 1 were exposed for 9 consecutive weeks to ultraviolet rays at a dose of 470 J/m^2 during the 0th (at the start of irradiation) to first week, at a dose of 530 J/m^2 during the first to second week, at a dose of 600 J/m^2 during the second to third week, and at a dose of 670 J/m^2 during the fourth and subsequent weeks, to prepare chronically ultraviolet-irradiated mice (wrinkle model mice). Then, 100 μL of 5 w/v % CLP solution (50 vol % ethanol solution) was applied once […] and five times a week for 6 consecutive weeks to the whole dorsal skin of each of the mice to examine changes in epidermal keratin protein levels. For controls, 50 vol % ethanol solution (solvent control) and unirradiated age-matched mice (unirradiated mice) were used. Each of the groups comprised 3 mice.
# (§2) After the dorsal skins collected from the mice were cooled on ice immediately after treatment in distilled water at 60° C. for 1 minute, epidermal portions were separated from the dermis with a spatula. […] Labeling was performed by using peroxidase-labeled secondary antibodies, and color was developed by chemiluminescence method (ECL-Plus, Amersham Pharmacia Biotech) and detected with X-ray films. Quantification was performed with Adobe Photoshop (Adobe Systems Incorporated).
# K16 protein [3] = test: Epidermal K16 protein level by western blotting in wrinkle model mice (Example 1); format: in vivo, hairless mice; settings: 5 w/v % CLP applied 6 weeks after 9 weeks of UV irradiation; compared with solvent control and unirradiated mice
# Description: as §1, §2
# K1 protein [4] = test: Epidermal K1 protein level by western blotting in wrinkle model mice (Example 1); format: in vivo, hairless mice; settings: 5 w/v % CLP applied 6 weeks after 9 weeks of UV irradiation
# Description: as §1, §2
# K10 protein [5] = test: Epidermal K10 protein level by western blotting in wrinkle model mice (Example 1); format: in vivo, hairless mice; settings: 5 w/v % CLP applied 6 weeks after 9 weeks of UV irradiation
# Description: as §1, §2
# K14 protein [6] = test: Epidermal K14 protein level by western blotting in wrinkle model mice (Example 1); format: in vivo, hairless mice; settings: 5 w/v % CLP applied 6 weeks after 9 weeks of UV irradiation
# Description: as §1, §2
# K5 protein [7] = test: Epidermal K5 protein level by western blotting in wrinkle model mice (Example 1); format: in vivo, hairless mice; settings: 5 w/v % CLP applied 6 weeks after 9 weeks of UV irradiation
# Description: as §1, §2
# [8] = system: hairless mice exposed to ultraviolet rays (wrinkle formation); test: Inhibitory effect of CLP on wrinkle formation, visual observation score (Example 2); format: in vivo; settings: 4% (Wt/Vol %) CLP, 100 μL applied immediately after each UV irradiation, 12 weeks
# Description: The degree of wrinkles formed on the dorsal skins of the mice was determined at the start of CLP application and on the 6th week according to a visual observation score with reference to the documents described above. The score was evaluated on a scale of 7 using the scores below and mean values.
# Score 0: no wrinkle observed
# Score 1: wrinkles slightly observed
# Score 2: wrinkles observed
# Score 3: wrinkles remarkably observed
# The same 6- to 8-week-old hairless mice as in Reference Example 1 were used and exposed to ultraviolet rays of 1 MED (minimum erythema dose) or lower. Immediately after the ultraviolet irradiation, procedures for applying 100 μL of 4% (Wt/Vol %) CLP solution (solvent: 30 Vol/Vol % ethanol/water solution) or vehicle control to the whole dorsal skin of each of the mice were performed once a day and five times a week for 12 consecutive weeks. The irradiation dose was 470 J/m^2 during the 0th (at the start of irradiation) to first week, 530 J/m^2 during the first to second week, 600 J/m^2 during the second to third week, and 670 J/m^2 during the fourth and subsequent weeks. Each of the groups comprised 10 to 12 mice.
# The degree of wrinkles formed on the dorsal skins of the mice was determined after 12 weeks from the start of ultraviolet irradiation according to the visual observation score in the same way as in Reference Example 1.
# K6 protein [9] = test: Epidermal K6 protein level by western blotting, wrinkle formation test (Example 2); format: in vivo, hairless mice; settings: 4% CLP applied with UV irradiation, 12 weeks
# Description: (§3) After the dorsal skins collected from the mice were cooled on ice immediately after treatment in distilled water at 60° C. for 1 minute, epidermal portions were separated from the dermis with a spatula. The obtained epidermal portions (containing the stratum corneum) were homogenized in a urea buffer (8 M urea, 50 mM tris-HCl (pH 7.6), 100 mM mercaptoethanol, 1 mM dithiothreitol, and protease inhibitors) to extract proteins. Insoluble matter was removed by centrifugation and supernatant collection. Following the measurement of the total protein concentration (RD DC Protein Assay Kit, Bio-Rad Laboratories Inc.), samples were prepared at the same concentrations. The samples were supplemented with laemmli buffer and treated at 90 to 100° C. for 3 to 5 minutes to give samples for electrophoresis. The samples were electrophoresed on 5 to 15% gradient acrylamide gel or 12.5% acrylamide gel (Bio Rad) at 60 V for 3 hours and blotted onto a nitrocellulose membrane at 250 mA for 1 hour under ice cooling. […] Labeling was performed by using peroxidase-labeled secondary antibodies, and color was developed by chemiluminescence method (ECL-Plus, Amersham Pharmacia Biotech) and detected with X-ray films. Quantification was performed with Adobe Photoshop (Adobe Systems Incorporated). […]
# (§4) Moreover, the quantification of keratin proteins was performed by western blotting in the same way as in Example 1.
# K16 protein [10] = test: Epidermal K16 protein level by western blotting, wrinkle formation test (Example 2); format: in vivo, hairless mice; settings: 4% CLP applied with UV irradiation, 12 weeks
# Description: as §3, §4
# K1 protein [11] = test: Epidermal K1 protein level by western blotting, wrinkle formation test (Example 2); format: in vivo, hairless mice; settings: 4% CLP applied with UV irradiation, 12 weeks
# Description: as §3, §4
# K10 protein [12] = test: Epidermal K10 protein level by western blotting, wrinkle formation test (Example 2); format: in vivo, hairless mice; settings: 4% CLP applied with UV irradiation, 12 weeks
# Description: as §3, §4
# K5 protein [13] = test: Epidermal K5 protein level by western blotting, wrinkle formation test (Example 2); format: in vivo, hairless mice; settings: 4% CLP applied with UV irradiation, 12 weeks
# Description: as §3, §4
# K14 protein [14] = test: Epidermal K14 protein level by western blotting, wrinkle formation test (Example 2); format: in vivo, hairless mice; settings: 4% CLP applied with UV irradiation, 12 weeks
# Description: as §3, §4
smiles,measurement,setting,value
"N=C(N)N1CCC[C@H]1C(=O)O [CLP, 1-carbamimidoyl-L-proline]","visual observation score of wrinkles, 6th week compared with at the start",[1],significantly decreased
same,"visual observation score of wrinkles, compared with control group on the 6th week",[1]; control 30 vol % ethanol,significantly lower
same,epidermal K6 protein level,K6 protein [2],decreased to unirradiated levels
same,epidermal K16 protein level,K16 protein [3],decreased to unirradiated levels
same,epidermal K1 protein level,K1 protein [4],No significant difference
same,epidermal K10 protein level,K10 protein [5],No significant difference
same,epidermal K14 protein level,K14 protein [6],No significant difference
same,epidermal K5 protein level,K5 protein [7],hardly changed
same,wrinkle formation (visual observation score) compared with vehicle control group,[8],significant inhibitory effect
same,K6 protein level compared with vehicle control group,K6 protein [9],significantly decreased
same,K16 protein level compared with vehicle control group,K16 protein [10],significantly decreased
same,K1 protein level compared with vehicle control group,K1 protein [11],no significant difference
same,K10 protein level compared with vehicle control group,K10 protein [12],no significant difference
same,K5 protein level compared with vehicle control group,K5 protein [13],no significant difference
same,K14 protein level compared with vehicle control group,K14 protein [14],no significant difference
